Bounds are passed on as bounds.

In series [1] the test system is P388 cells (mouse leukemia cells). The series is described as follows: in vitro antitumor activity test, P388 cells, XTT colorimetry. The series is classed as cell-based. The settings on record: cultured 72 hours. The essentials: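 Cells from DBA/2 mouse ascites, in RPMI 1640 with 10% FBS and 25 mM HEPES, seeded from a 4×10^4 cells/ml suspension. Equal volume added of compound solutions prepared at 2.0×10^−9 to 2.0×10^−4 M (pre-mixing). After 72 h at 37° C, 5% CO2, growth read by XTT; GI50 (μM) is the concentration giving 50% growth inhibition.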
Background: Formazan colour is commonly taken as a measure of viable cells.

For series [2], the system named is PC-3 cells (human prostate cancer cells). Description: in vitro antitumor activity test, PC-3 cells, XTT colorimetry. The series is classed as cell-based. The settings on record: PC-3 human prostate cancer cells, cultured 72 hours. In outline: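 PC-3 human prostate cancer cells, seeded at 2×10^4 cells/ml and allowed to adhere for 24 h, were exposed 72 h at 37° C, 5% CO2 to compound diluted in RPMI 1640 with 10% FBS to 2.0×10^−9 to 2.0×10^−4 M (pre-addition solutions). Growth was measured by XTT colorimetry and GI50 (μM) calculated.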

The test system of series [3] is B16F10 cells (mouse melanoma [malignant melanoma] cells). The series is described as follows: in vitro antitumor activity test, B16F10 cells, XTT colorimetry. In kind it is cell-based. To be noted: B16-F10, cultured 72 hours. In outline:
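B16F10 mouse melanoma cells were seeded from a 1×10^4 cells/ml suspension and allowed to adhere for 24 h. Compounds in DMSO were diluted in RPMI 1640 with 10% FBS to 2.0×10^−9 to 2.0×10^−4 M and incubated 72 h at 37° C, 5% CO2. XTT colorimetry gave GI50 (μM).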

For series [4], the system named is WiDr cells (human colon cancer cells). Description: in vitro antitumor activity test, WiDr cells, XTT colorimetry. The series is classed as cell-based. The settings on record: cultured 72 hours. The essentials: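 Human colon cancer cells in MEM/10% FBS were seeded 3×10^4 cells/ml and allowed to adhere for 24 h, then exposed to compounds prepared at 2.0×10^−9 to 2.0×10^−4 M in RPMI 1640 for 72 h at 37° C, 5% CO2. Growth was read by XTT colorimetry and GI50 (μM) calculated.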

The subject of series [5] is A549 cells (human lung cancer cells). Description: in vitro antitumor activity test, A549 cells, XTT colorimetry. In kind it is cell-based. The settings on record: cultured 72 hours. The essentials:
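Cells seeded at 2×10^4 cells/ml in MEM + 10% FBS, 25 mM HEPES, kanamycin, allowed to adhere 24 h, then exposed to compounds (DMSO stocks diluted in RPMI 1640; prepared at 2.0×10^−9 to 2.0×10^−4 M) for 72 h at 37 °C, 5% CO2. Growth inhibition read by XTT colorimetry; GI50 (μM) calculated.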

Series [6] deals with MCF-7 cells (human breast cancer cells). Description: antitumor activity against breast cancer cells, cell counting. The series is classed as cell-based. The settings on record: MCF7; MCF-7 human breast cancer cells, cultured 72 hours, cell counter. As for the experimental part:
MCF-7 cells (human breast cancer cells) subcultured in a culture medium composed of a MEM medium added with 10% fetal bovine serum, 25 mM HEPES and 0.1 mg/ml kanamycin under the conditions of 37° C. and 5% carbon dioxide gas were made into single floating cells by treating with trypsin/EDTA, and a single cell suspension of 4×10^4 cells per 1 ml was prepared using the MEM medium (added with 10% fetal bovine serum, 25 mM HEPES and 0.1 mg/ml kanamycin). After dissolving the test substances (Compound 2 and Compound 7) in DMSO, they were diluted with the MEM medium (added with 10% fetal bovine serum, 25 mM HEPES and 0.1 mg/ml kanamycin) and prepared so that the concentrations were 6.4×10^−8 to 2.0×10^−5 M.
0.1 ml of the cell suspension was placed into each well of a 96-well microplate, cultured for 24 hours to allow the cells to adhere to the microplate, then 0.1 ml of the sample solutions were added, and cultured for 72 hours at 37° C. in 5% carbon dioxide gas.
Afterwards, the cells in each well were made single floating cells by treating with trypsin/EDTA, and the number of cells was counted using a cell counter to obtain the growth inhibition rate at various sample concentrations and calculate the concentrations at which growth was inhibited by 50% (GI50 values [μM]).

The subject of series [7] is human lung cancer A549. The series is described as follows: in vivo antitumor activity, nude mice transplanted with human lung cancer A549. Details: species or system BALB/c-nu/nu mice. The settings on record: tumor volume at day 14. As for the experimental part:
(§1) Tumor tissue fragments of human lung cancer A549 (3 mm×3 mm×3 mm) were transplanted subcutaneously into the chests of six-week-old female BALB/c-nu/nu mice, and sample administration started when the tumor volume reached at least approximately 100 mm^3 (day 0). Compound 2 and Compound 7 were suspended in a 1% hydroxypropylcellulose (HPC [L]) solution using an agate mortar. 400 mg/kg of Compound 2 was orally administered daily from day 0 to day 13 (excluding day 3 and day 10, a total of 12 times). 400 mg/kg of Compound 7 was intraperitoneally administered daily from day 0 to day 13 (excluding day 4 and day 11, a total of 12 times). Tumor diameters were measured to calculate tumor volume (½×long diameter×short diameter×short diameter), and the tumor volume after 14 days (at day 14) from the start of sample administration was divided by the tumor volume at the start of the administration to calculate relative tumor growth rate. The percentage of the relative tumor growth rate of the control group with respect to the relative tumor growth rate of the group administered with Compound 2 or Compound 7 was taken as T/C (%).

Series [8] has as its system human prostate cancer PC-3. The series is described as follows: in vivo antitumor activity, nude mice transplanted with human prostate cancer PC-3. To be noted: PC-3 in nude mice, 400 mg/kg orally daily day 0 to day 13 (12 times), tumor volume at day 14. Details: species or system BALB/c-nu/nu mice. As for the experimental part: as §1, with “prostate” for “lung”, “PC-3” for “A549”, “was” for “and Compound 7 were”, “HPC (L)” for “hydroxypropylcellulose (HPC [L])”, “10,” for “10, a total of 12 times). 400 mg/kg of Compound 7 was intraperitoneally administered daily from day 0 to day 13 (excluding day 4 and day 11,”, “2” for “2 or Compound 7”

Series [9] has as its system human colon cancer WiDr. The series is described as follows: in vivo antitumor activity, nude mice transplanted with human colon cancer WiDr. Details: species or system BALB/c-nu/nu mice. To be noted: 400 mg/kg orally daily day 0 to day 13 (12 times), tumor volume at day 14. On the procedure: as §1, with “colon” for “lung”, “WiDr” for “A549”, “was” for “and Compound 7 were”, “HPC (L)” for “hydroxypropylcellulose (HPC [L])”, “10,” for “10, a total of 12 times). 400 mg/kg of Compound 7 was intraperitoneally administered daily from day 0 to day 13 (excluding day 4 and day 11,”, “2” for “2 or Compound 7”

By GI50 is commonly meant the concentration giving 50% growth inhibition. High values mean less potent growth inhibition, low ones more potent growth inhibition. By T/C is commonly meant the ratio of treated to control. One may read the melting point as the temperature, or range, at which the solid turns liquid. Consider `CCc1nc2c(N3CCOCC3)nc(SCc3ccc(OC)c(N)c3)nc2n1C` [Compound 2, 2-(3-amino-4-methoxybenzylsulfanyl)-8-ethyl-9-methyl-6-morpholino-9H-purine], for which the melting point amounted to 139 °C. In series [1], this compound gave a GI50 of 110 nM. In [2], halving of growth (GI50) required 100 nM. The compound also came in with a GI50 in series [3] of 300 nM. The same compound came in with a concentration for 50% growth inhibition (GI50) in series [4] of 300 nM. The same compound registered a 50% growth inhibitory concentration (GI50) in series [5] of 140 nM. This compound showed a GI50 in series [6] of 110 nM. This compound gave a T/C in series [7] (400 mg/kg orally daily day 0 to day 13 (12 times)) of 73.1%. In [8], the T/C came out at 32.2%. Moreover, the T/C in series [9] stood at 62.1%.

With `CCc1nc2c(N3CCN(N=O)CC3)nc(SCc3ccc(OC)cc3)nc2n1C` [Compound 7, 8-ethyl-2-(4-methoxybenzylsulfanyl)-9-methyl-6-(4-nitrosopiperazin-1-yl)-9H-purine], the GI50 in [1] worked out at 120 nM; in [2], 140 nM; in [3], 340 nM; in series [4], 250 nM; in series [5] it was 130 nM; in [6], 130 nM. This compound also had a T/C in series [7] (400 mg/kg intraperitoneally daily day 0 to day 13 (12 times)) of 55.4%.

Take `C=Cc1nc(SCc2ccc(OC)cc2)nc2c1ncn2C` [Compound 165, 2-(4-methoxybenzylsulfanyl)-9-methyl-6-vinyl-9H-purine]: the GI50 in [1] worked out at 260 nM; in series [2] it was 3200 nM; in series [3], 980 nM; in series [4] it was 4100 nM; in series [5], 3300 nM.

In the case of `COc1ccc(CSc2nc(-c3ccc([N+](=O)[O-])cc3)c3ncn(C)c3n2)cc1` [Compound 166, 2-(4-methoxybenzylsulfanyl)-9-methyl-6-(4-nitrophenyl)-9H-purine], the GI50 in series [1] worked out at 280 nM; in series [2] it was 1390 nM; in series [3] it was 1550 nM; in [4] it was 820 nM; in series [5], 670 nM.

As for `COc1ccc(CSc2nc(-c3ccco3)c3ncn(C)c3n2)cc1` [Compound 167, 6-(2-furyl)-2-(4-methoxybenzylsulfanyl)-9-methyl-9H-purine], the GI50 was determined as 1870 nM in series [1]; 1800 nM in series [2]; 2470 nM in series [3]; 1750 nM in series [4]; 1490 nM in series [5].

`COc1ccc(CSc2nc(-c3ccsc3)c3ncn(C)c3n2)cc1` [Compound 168, 2-(4-methoxybenzylsulfanyl)-9-methyl-6-(3-thienyl)-9H-purine]: the concentration for 50% growth inhibition (GI50) in [1] stood at 140 nM; in series [2] it was 320 nM; in series [3], 210 nM; in series [4], 140 nM; in series [5], 220 nM.

For the compound `COc1ccc(CSc2nc(-c3c(C)noc3C)c3ncn(C)c3n2)cc1` [Compound 169, 6-(3,5-dimethylisoxazol-4-yl)-2-(4-methoxybenzylsulfanyl)-9-methyl-9H-purine], the GI50 in [1] is < 40 nM; in series [2] it was 70 nM; in series [3], 110 nM; in series [4], 80 nM; in [5], < 40 nM.

Turning to `COc1ccc(CSc2nc(-c3cn[nH]c3)c3ncn(C)c3n2)cc1` [Compound 170, 2-(4-methoxybenzylsulfanyl)-9-methyl-6-(pyrazol-4-yl)-9H-purine], the concentration for 50% growth inhibition (GI50) in [1] is < 40 nM; in series [2] it was 50 nM; in series [3], 70 nM; in series [4], < 40 nM; in [5], < 40 nM.

With `C/C=C/c1nc(SCc2ccc(OC)c([N+](=O)[O-])c2)nc2c1ncn2C` [Compound 171, 2-(4-methoxy-3-nitrobenzylsulfanyl)-9-methyl-6-(1-trans-propenyl)-9H-purine], the concentration for 50% growth inhibition (GI50) in [1] is 220 nM; in series [2], 470 nM; in [3] it was 560 nM; in series [4], 370 nM; in [5], 270 nM.

Consider `C/C=C/c1nc(SCc2ccc(OC)c(N)c2)nc2c1ncn2C` [Compound 173, 2-(3-amino-4-methoxybenzylsulfanyl)-9-methyl-6-(1-trans-propenyl)-9H-purine], for which the GI50 in series [1] was determined as 90 nM; in series [2] it was 380 nM; in series [3], 250 nM; in series [4] it was 1510 nM; in [5], 160 nM.

As to `Sc1ncnc2nc[nH]c12` [Compound A, 6-mercaptopurine, reference compound], the 50% growth inhibitory concentration (GI50) in series [1] was 22500 nM; in series [2] it was > 100000 nM; in series [3], 22600 nM; in series [4], 70000 nM; in series [5], > 100000 nM.

In the case of `COc1ccc(CNc2nc(N3CCOCC3)c3ncn(C)c3n2)cc1` [Compound B, reference compound], the GI50 in series [1], in series [2], in [3], in [4] and in [5] was > 10000 nM each time.

Regarding `CN(C)c1nc(SCc2ccccc2)nc2[nH]cnc12` [Compound C, reference compound], the GI50 in [1], in series [2], in series [3], in series [4] and in [5] was > 10000 nM each time.
